Test results published in patent US8058228B2, “Leptin peptide antagonists” (Boston Biomedical Research Institute, priority 2004, dated 2011).
Entries after “also recorded” stand apart in the source; their conditions may differ.

Key:
Format in all cases: cell-based
[1] = system: OB-R; experiment: OB-R expression by rabbit endometrial cells (immunocytochemistry, Western blot); conditions: cultures of rESC or rEEC
Description: Rabbit endometrial cells (5×10^5 cells/well) were cultured for 5-9 days in DMEM-MCDB105 (3:1) medium containing 10% fetal bovine serum (FBS), 5 μg/ml insulin, 1% amphopthericin B, 100 μg/ml streptomycin and 100 U/ml penicillin until confluent layers were obtained. The cells were washed twice with 100 mM phosphate saline buffer (PBS) −2% BSA (w/v), pH 7.2 and cultured for an additional 2 days in the same medium but without FBS (basal medium). This procedure was performed to reduce any effects of cytokines from FBS on the phosphorylation rate of Stat3 as well as the expression of other cytokines and their receptors. […]
The expression of OB-R was assessed by incubation of rEC for 1 h at room temperature with goat antibodies directed towards the amino terminal ends of human OB-R (R&D system) diluted 1:80 in buffer A.
After culture in the presence of leptin, LPAs or antibodies, the endometrial cells were washed with ice-cold PBS and lysed by homogenization on ice with lysis buffer [[…] Tris, pH 7.4, containing […] NaCl, 2 mM EDTA, 10% glycerol, 50 mM β-glycerophosphate, […] NaF, 1% Nonidet P-40, 2 mM phenyl-methylsulfonyl fluoride, 2 mM sodium orthovanadate, 100 μM antipain, 0.1 mg/ml trypsin inhibitor and protease cocktail inhibitor 1:50 (Sigma)]. […] Protein concentrations were determined using the Bradford protein assay (BioRad Laboratories Inc., Hercules, Calif.). […]

[2] = system: OB-R; experiment: p-Stat3 expression in rabbit endometrial cells (immunocytochemistry, Western blot); conditions: for effect on basal expression of p-Stat3 / effect on leptin up-regulation of Stat3 phosphorylation: rESC and rEEC; for effect on basal expression of p-Stat3: Western blot, 3 to 300 nM; for effect on leptin up-regulation of Stat3 phosphorylation: peptides 3 to 300 nM, antibody 1-10 μg/ml
Description: (§1) Rabbit endometrial cells (5×10^5 cells/well) were cultured for 5-9 days in DMEM-MCDB105 (3:1) medium containing 10% fetal bovine serum (FBS), 5 μg/ml insulin, 1% amphopthericin B, 100 μg/ml streptomycin and 100 U/ml penicillin until confluent layers were obtained. The cells were washed twice with 100 mM phosphate saline buffer (PBS) −2% BSA (w/v), pH 7.2 and cultured for an additional 2 days in the same medium but without FBS (basal medium). This procedure was performed to reduce any effects of cytokines from FBS on the phosphorylation rate of Stat3 as well as the expression of other cytokines and their receptors. Cells were washed as described before and cultured in basal medium containing leptin (0-10 nM), OB-R antibody (1-20 μg/ml) and/or LPA-2 peptides (0-300 nM). Cultures were stopped at 24 h and the cells were used for immunocytochemistry, binding studies and western blot analysis. The conditioned media were collected, lyophilized and stored at −80° C. for ELISA determinations. Duplicate wells were run for each treatment and the experiments repeated at least three times with different cell preparations from different rabbits. Controls were the same cellular preparations cultured in basal medium containing non-specific goat IgGs and LPA-2Sc.
The rabbit endometrial cells were cultured as described above in duplicate on 8-well glass-bottom culture plates (Nalgene Nunc International, Naperville, Ill.) and fixed with methanol at −20° C. for 20 min for immunocytochemical studies. All the antibodies tested were diluted in PBS-2% BSA (w/v; buffer A).
Anti IL-1R tl (1 μg/ml), anti LIF-R (2 μg/ml), anti vimentin (1:50), anti cytokeratin (1:50) and anti p-Stat3 (1 μg/ml) antibodies were used to assess the expression of the respective antigens by rEEC and rESC cultures. After incubation with primary antibodies the cells were incubated with a streptavidin-biotin-alkaline phosphatase system according to the manufacturer directions (Vectastain, ABC-AP kit, Vector Laboratories, Burlingame, Calif.) and counter-stained with hematoxylin (Dako). Negative controls included cell preparations in which the primary antibodies were substituted by irrelevant species matched IgGs.
After culture in the presence of leptin, LPAs or antibodies, the endometrial cells were washed with ice-cold PBS and lysed by homogenization on ice with lysis buffer [[…] Tris, pH 7.4, containing 137 nM NaCl, 2 mM EDTA, 10% glycerol, 50 mM β-glycerophosphate, 50 nM NaF, 1% Nonidet P-40, 2 mM phenyl-methylsulfonyl fluoride, 2 mM sodium orthovanadate, 100 μM antipain, 0.1 mg/ml trypsin inhibitor and protease cocktail inhibitor 1:50 (Sigma)]. Cellular lysates were centrifuged at 24000 g at 4° C. for 10 min. Protein concentrations were determined using the Bradford protein assay (BioRad Laboratories Inc., Hercules, Calif.).
Protein extracts from cell lysates were combined (1:1) with Laemmli buffer (2× concentrated) and 10 μg of proteins were loaded per lane on 7.5% (for p-Stat3, IL-1R tl and LIF-R) and 10% (for OB-R) SDS-PAGE gels. Electrophoresis was performed at 65 V for 1-1.5 h (BioRad, electrophoresis apparatus). Electroblotting onto 0.2 μm nitrocellulose membranes was performed at 22V overnight at 4° C. in 48 nM Tris-39 nM glycine buffer containing 0.037% SDS and 20% methanol. […]

[3] = system: OB-R; experiment: LIF secretion by rabbit endometrial cell cultures (ELISA)
Description: as §1
IL-1β from rabbits and humans have sequence differences, but no data is available concerning the sequence of rabbit LIF. In addition, there are no commercial kits for measuring rabbit IL-1β or LIF. […] Conditioned media (n=3 per treatment) from rESC and rEEC cultured in the experimental conditions described above were used to quantify the secretion of LIF by ELISA (LIF-Quantikine®, R&D Systems). Standards, controls, and samples were assayed in duplicate. The intra- and interassay coefficients of variations were between 0.7-12% and 3-7%, respectively.

Substance | expression of OB-R [1] | effect on basal expression of p-Stat3 [2] | effect on leptin up-regulation of Stat3 phosphorylation ([2]; leptin 3 nM) | effect on leptin induction of LIF secretion ([3]; rEEC, leptin 3 nM with LPA-2 3 to 300 nM, OB-R antibody 20 μg/ml) | effect on leptin-induced LIF secretion at the higher leptin dose ([3]; rEEC, leptin 10 nM, equimolar LPA-2 (10 nM)) | p-Stat3 expression after leptin ([2]; rESC, immunocytochemistry, leptin 3 nM) | LIF secretion after leptin ([3]; rEEC and rESC, more evident in rEEC)
SRNVIQISNDLENLRDLLHVLAFSKS [LPA-2, 26 amino acid peptide, residues 70-95 of helix III of the human leptin molecule; leptin peptide antagonist] | did not affect the expression of OB-R | effectively inhibited the basal expression of p-Stat3 | significantly inhibits the leptin up-regulation of Stat3 phosphorylation | significantly inhibited the leptin (3 nM) induction of LIF secretion | effectively inhibited; also recorded: completely inhibited | – | –
leptin: human recombinant leptin (R&D Systems), OB-R ligand used as stimulus | did not affect the expression of OB-R | – | – | – | – | up-regulated | increased LIF secretion in a dose-dependent manner
VAEVLNRSDLIQRISFSLDLNNSKLH [LPA-2Sc, scrambled version of LPA-2, negative control, reference compound] | – | No inhibitory effect on p-Stat3 expression | not observed | – | – | – | –
